Patent US20220039384A1, “SELECTIVE WEED CONTROL WITH HALAUXIFEN OR 4-AMINO-3-CHLORO-5-FLUORO-6-(4-CHLORO-2-FLUORO-3-METHOXYPHENYL) PYRIDINE-2-CARBOXYLIC ACID OR DERIVATIVES THEREOF IN VINEYARDS OR PERENNIAL CROPS” (Corteva Agriscience LLC, priority 2013, published 2022)

Tests used:
Type in all cases: in vivo
[1] = test system: commercially relevant broadleaf and grass weeds; assay: Pre- and post-emergence weed control, general statement; conditions: application rate of 2.5 to 40 g ae/ha; pre-emergence and post-emergence application
Text: (§1) Additional examples of application rates for Compound I as a pre-emergence and post-emergence application include 0.25 to 50 g ae/ha, 0.25 to 45 g ae/ha, 0.25 to 40 g ae/ha, 0.25 to 35 g ae/ha, 0.25 to 30 g ae/ha, 0.25 to 25 g ae/ha, 0.25 to 20 g ae/ha, 0.25 to 15 g ae/ha, 0.25 to 10 g ae/ha, 0.25 to 5 g ae/ha, 2.5 to 50 g ae/ha, 5 to 50 g ae/ha, 10 to 50 g ae/ha, 15 to 50 g ae/ha, 20 to 50 g ae/ha, 25 to 50 g ae/ha, 30 to 50 g ae/ha, 35 to 50 g ae/ha, 40 to 50 g ae/ha, 45 to 50 g ae/ha, 5 to 40 g ae/ha, 10 to 40 g ae/ha, 15 to 40 g ae/ha, 20 to 40 g ae/ha, 25 to 40 g ae/ha, 30 to 40 g ae/ha, 35 to 40 g ae/ha, 2.5 to 35 g ae/ha, 2.5 to 30 g ae/ha, 2.5 to 25 g ae/ha, 2.5 to 20 g ae/ha, 2.5 to 15 g ae/ha, 2.5 to 10 g ae/ha, 2.5 to 5 g ae/ha, 5 to 35 g ae/ha, 10 to 30 g ae/ha, 15 to 25 g ae/ha, and 15 to 20 g ae/ha. Further examples of application rates for Compound I as a pre-emergence and post-emergence application include 0.25 g ae/ha, 0.5 g ae/ha, 0.75 g ae/ha, 1 g ae/ha, 1.25 g ae/ha, 1.5 g ae/ha, 1.75 g ae/ha, 2 g ae/ha, 2.25 g ae/ha, 2.5 g ae/ha, 3 g ae/ha, 4 g ae/ha, 5 g ae/ha, 6 g ae/ha, 7 g ae/ha, 8 g ae/ha, 9 g ae/ha, 10 g ae/ha, 12 g ae/ha, 14 g ae/ha, 16 g ae/ha, 18 g ae/ha, 20 g ae/ha, 22 g ae/ha, 24 g ae/ha, 26 g ae/ha, 28 g ae/ha, 30 g ae/ha, 32 g ae/ha, 34 g ae/ha, 36 g ae/ha, 38 g ae/ha, 40 g ae/ha, 42 g ae/ha, 44 g ae/ha, 46 g ae/ha, 48 g ae/ha, and 50 g ae/ha. […]

[2] = test system: grapevines and perennial crops; assay: Crop safety, general statement; conditions: post-emergence application rates of ≤20 g ae/ha; dormant application or spring application directed under the crops
Text: as §1

[3] = test system: AMSIN (Amsinckia intermedia, coast fiddleneck); assay: Field trial, pre-emergence application (February), California vineyards: visual weed control
Text: (§2) As used herein, selective pre- and post-emergence control of undesirable vegetation means preventing, reducing, killing, or otherwise adversely modifying the development of the undesirable vegetation in the presence of crop plants with limited adverse effect on the crop plants. For example, a broadleaf weed control of 80% (rated visually) with crop injury of less than or equal to 20% (rated visually) would constitute selective control. In some embodiments the adverse effect on crop plants is limited to less than 10% visually rated crop injury. Visual crop injury is a composite rating accounting for all phytotoxic effects including chlorosis, necrosis, growth inhibition, epinasty, delays in maturity and seed or fruit deformity. Visual weed control is a composite rating accounting for reductions in pest plant biomass and/or stand reduction.
(§3) Small plot research experiments were conducted in Fresno, Calif., USA to evaluate the pre-emergence and post-emergence herbicidal weed control activity and the vines crop tolerance to pre-emergence and post-emergence application of Compound I and Compound II to the weeds. Application water volume of 100 to 187 liters per hectare (L/ha) was used for all experiments. All treatments were applied with a standard small plot carbon dioxide (CO2) backpack sprayer. All treatments were tank-mixed with Crop Oil Concentrate (COC), a well known adjuvant, at 2.34 L/ha. Experimental emulsifiable concentrate (EC) formulations were used for Compounds I and II. The dimethylammonium (DMA) salt of glyphosate was used in all trials. Pindar® GT is a commercial formulation containing a pre-mix of penoxsulam+oxyfluorfen (10+476 grams of active ingredient per liter (g ai/L), respectively). Vine crop stage was dormant (no leaves on the vines during the winter) or early spring growth at the time of Compound I or Compound II application. Generally, weeds were not emerged for the pre-emergence treatments or were at the two to six-leaf stage at the time of the post-emergence herbicide application.
(§4) Tables 1, 2 and 6 provide weed control results from pre-emergence applications of Compounds I and/or II prior to weed emergence; Tables 4, 7 and 8 provide weed control results from post-emergence applications of Compounds I and/or II applied to actively growing weeds; Tables 3 and 5 provide vine response data from pre-emergence and post-emergence applications of Compound I respectively.

[4] = test system: CAPBP (Capsella bursa-pastoris, Shepherd's purse); assay: as above
Text: as §2, §3, §4

[5] = test system: CLNCM (Calandrinia ciliata, rock purslane); assay: as above
Text: as §2, §3, §4

[6] = test system: EROCI (Erodium cicutarium, redstem filaree); assay: Field trial, post-emergence directed spring application (March), California vineyards: visual weed control
Text: as §2, §3, §4

[7] = test system: MALPA (Malva parviflora, smallflower malva); assay: as above
Text: as §2, §3, §4

[8] = test system: MEDPO (Medicago polymorpha, California burclover); assay: as above
Text: as §2, §3, §4

[9] = test system: STEME (Stellaria media, common chickweed); assay: as above
Text: as §2, §3, §4

[10] = test system: AMARE (Amaranthus retroflexus, redroot pigweed); assay: Field trial, post-emergence directed dormant application (December), California vineyards: visual weed control
Text: as §2, §3, §4

[11] = test system: AMSIN (Amsinckia intermedia, coast fiddleneck); assay: as above
Text: as §2, §3, §4

[12] = test system: CAPBP (Capsella bursa-pastoris, Shepherd's purse); assay: as above
Text: as §2, §3, §4

[13] = test system: CHEAL (Chenopodium album, common lambsquarters); assay: as above
Text: as §2, §3, §4

[14] = test system: IPOSS (Ipomoea spp, morningglory); assay: as above
Text: as §2, §3, §4

COc1c(Cl)ccc(-c2cc(N)c(Cl)c(C(=O)O)n2)c1F [Compound I, 4-amino-3-chloro-6-(4-chloro-2-fluoro-3-methoxyphenyl)pyridine-2-carboxylic acid] was tested, and the “efficacy on commercially relevant broadleaf and grass weeds” value [1] was “highly efficacious” and the “crop injury to grapevines and perennial crops” value [2] was “little to no crop injury”.
In the case of O=C(O)CNCP(=O)(O)O [Glyphosate, glyphosate, reference compound], the “% Visual Control 48 DAA AMSIN” value ([3]; 1680 g ae/ha) was 0%, the “% Visual Control 48 DAA CAPBP” value ([4]; 1680 g ae/ha) was 0% and the “% Visual Control 48 DAA CLNCM” value ([5]; 1680 g ae/ha) was 0%. The “% Visual Control 59 DAA EROCI” value ([6]; 1680 g ae/ha) was 91%, the “% Visual Control 59 DAA MALPA” value ([7]; 1680 g ae/ha) was 86.7% and the “% Visual Control 59 DAA MEDPO” value ([8]; 1680 g ae/ha) was 100%. The “% Visual Control 59 DAA STEME” value ([9]; 1680 g ae/ha) was 93.3%, the “% Visual Control 57 DAA AMARE” value ([10]; 1680 g ae/ha) was 0% and the “% Visual Control 57 DAA AMSIN” value ([11]; 1680 g ae/ha) was 100%. For the same compound, the “% Visual Control 57 DAA CAPBP” value ([12]; 1680 g ae/ha) was 99.3%, the “% Visual Control 57 DAA CHEAL” value ([13]; 1680 g ae/ha) was 95% and the “% Visual Control 57 DAA IPOSS” value ([14]; 1680 g ae/ha) was 51.7%.
In the case of COc1c(Cl)ccc(-c2nc(C(=O)OCc3ccccc3)c(Cl)c(N)c2F)c1F [II-Bn, benzyl 4-amino-3-chloro-5-fluoro-6-(4-chloro-2-fluoro-3-methoxyphenyl)pyridine-2-carboxylate], the “% Visual Control 48 DAA AMSIN” value ([3]; 5 g ai/ha) was 0%, the “% Visual Control 48 DAA AMSIN” value ([3]; 10 g ai/ha) was 33.3% and the “% Visual Control 48 DAA AMSIN” value ([3]; 20 g ai/ha) was 40%. The “% Visual Control 48 DAA AMSIN” value ([3]; 40 g ai/ha) was 87.3%, the “% Visual Control 48 DAA AMSIN” value ([3]; 50 g ai/ha) was 84.3% and the “% Visual Control 48 DAA CAPBP” value ([4]; 5 g ai/ha) was 0%. For the same compound, the “% Visual Control 48 DAA CAPBP” value ([4]; 10 g ai/ha) was 60%, the “% Visual Control 48 DAA CAPBP” value ([4]; 20 g ai/ha) was 76.7% and the “% Visual Control 48 DAA CAPBP” value ([4]; 40 g ai/ha) was 100%. The “% Visual Control 48 DAA CAPBP” value ([4]; 50 g ai/ha) was 96.7%, the “% Visual Control 48 DAA CLNCM” value ([5]; 5 g ai/ha) was 0% and the “% Visual Control 48 DAA CLNCM” value ([5]; 10 g ai/ha) was 40%. For the same compound, the “% Visual Control 48 DAA CLNCM” value ([5]; 20 g ai/ha) was 56.7%, the “% Visual Control 48 DAA CLNCM” value ([5]; 40 g ai/ha) was 90% and the “% Visual Control 48 DAA CLNCM” value ([5]; 50 g ai/ha) was 96.7%. For the same compound, the “% Visual Control 59 DAA EROCI” value ([6]; 5 g ai/ha) was 81.7%, the “% Visual Control 59 DAA EROCI” value ([6]; 10 g ai/ha) was 85% and the “% Visual Control 59 DAA EROCI” value ([6]; 20 g ai/ha) was 85%. For the same compound, the “% Visual Control 59 DAA EROCI” value ([6]; 40 g ai/ha) was 94.3%, the “% Visual Control 59 DAA EROCI” value ([6]; 50 g ai/ha) was 96% and the “% Visual Control 59 DAA MALPA” value ([7]; 5 g ai/ha) was 61.9%. The “% Visual Control 59 DAA MALPA” value ([7]; 10 g ai/ha) was 83.4%, the “% Visual Control 59 DAA MALPA” value ([7]; 20 g ai/ha) was 90% and the “% Visual Control 59 DAA MALPA” value ([7]; 40 g ai/ha) was 95%. The “% Visual Control 59 DAA MALPA” value ([7]; 50 g ai/ha) was 96.7%, the “% Visual Control 59 DAA MEDPO” value ([8]; 5 g ai/ha) was 100% and the “% Visual Control 59 DAA MEDPO” value ([8]; 10 g ai/ha) was 100%. The “% Visual Control 59 DAA MEDPO” value ([8]; 20 g ai/ha) was 100%, the “% Visual Control 59 DAA MEDPO” value ([8]; 40 g ai/ha) was 100% and the “% Visual Control 59 DAA MEDPO” value ([8]; 50 g ai/ha) was 100%. For the same compound, the “% Visual Control 59 DAA STEME” value ([9]; 5 g ai/ha) was 70%, the “% Visual Control 59 DAA STEME” value ([9]; 10 g ai/ha) was 75% and the “% Visual Control 59 DAA STEME” value ([9]; 20 g ai/ha) was 84.3%. For the same compound, the “% Visual Control 59 DAA STEME” value ([9]; 40 g ai/ha) was 94.3%, the “% Visual Control 59 DAA STEME” value ([9]; 50 g ai/ha) was 97.3% and the “% Visual Control 57 DAA AMARE” value ([10]; 5 g ai/ha) was 100%. The “% Visual Control 57 DAA AMARE” value ([10]; 10 g ai/ha) was 95%, the “% Visual Control 57 DAA AMARE” value ([10]; 20 g ai/ha) was 100% and the “% Visual Control 57 DAA AMARE” value ([10]; 40 g ai/ha) was 100%. For the same compound, the “% Visual Control 57 DAA AMARE” value ([10]; 50 g ai/ha) was 100%, the “% Visual Control 57 DAA AMSIN” value ([11]; 5 g ai/ha) was 56.7% and the “% Visual Control 57 DAA AMSIN” value ([11]; 10 g ai/ha) was 96.7%. The “% Visual Control 57 DAA AMSIN” value ([11]; 20 g ai/ha) was 86.7%, the “% Visual Control 57 DAA AMSIN” value ([11]; 40 g ai/ha) was 100% and the “% Visual Control 57 DAA AMSIN” value ([11]; 50 g ai/ha) was 100%. The “% Visual Control 57 DAA CAPBP” value ([12]; 5 g ai/ha) was 100%, the “% Visual Control 57 DAA CAPBP” value ([12]; 10 g ai/ha) was 100% and the “% Visual Control 57 DAA CAPBP” value ([12]; 20 g ai/ha) was 100%. For the same compound, the “% Visual Control 57 DAA CAPBP” value ([12]; 40 g ai/ha) was 100%, the “% Visual Control 57 DAA CAPBP” value ([12]; 50 g ai/ha) was 100% and the “% Visual Control 57 DAA CHEAL” value ([13]; 5 g ai/ha) was 96.7%. For the same compound, the “% Visual Control 57 DAA CHEAL” value ([13]; 10 g ai/ha) was 100%, the “% Visual Control 57 DAA CHEAL” value ([13]; 20 g ai/ha) was 100% and the “% Visual Control 57 DAA CHEAL” value ([13]; 40 g ai/ha) was 100%. For the same compound, the “% Visual Control 57 DAA CHEAL” value ([13]; 50 g ai/ha) was 100%, the “% Visual Control 57 DAA IPOSS” value ([14]; 5 g ai/ha) was 55% and the “% Visual Control 57 DAA IPOSS” value ([14]; 10 g ai/ha) was 46.7%. For the same compound, the “% Visual Control 57 DAA IPOSS” value ([14]; 20 g ai/ha) was 66.7%, the “% Visual Control 57 DAA IPOSS” value ([14]; 40 g ai/ha) was 66.7% and the “% Visual Control 57 DAA IPOSS” value ([14]; 50 g ai/ha) was 97.3%.
